{"source": "patent US20070135499A1", "about": "(Aerie Pharmaceuticals, Inc., priority 2005, published 2007)", "key": {"[1]": {"target": "Beta 1 Adrenergic receptor (B1 wt)", "assay": "Transfluor assay, ISO-induced arrestin-GFP translocation to Beta 1 Adrenergic receptor", "format": "cell-based", "settings": "U2OS cells"}, "hGRK-2": {"target": "T1, hGRK-2 (Homo sapiens, UniProt P25098)", "T1 sequence (P25098 1-689)": "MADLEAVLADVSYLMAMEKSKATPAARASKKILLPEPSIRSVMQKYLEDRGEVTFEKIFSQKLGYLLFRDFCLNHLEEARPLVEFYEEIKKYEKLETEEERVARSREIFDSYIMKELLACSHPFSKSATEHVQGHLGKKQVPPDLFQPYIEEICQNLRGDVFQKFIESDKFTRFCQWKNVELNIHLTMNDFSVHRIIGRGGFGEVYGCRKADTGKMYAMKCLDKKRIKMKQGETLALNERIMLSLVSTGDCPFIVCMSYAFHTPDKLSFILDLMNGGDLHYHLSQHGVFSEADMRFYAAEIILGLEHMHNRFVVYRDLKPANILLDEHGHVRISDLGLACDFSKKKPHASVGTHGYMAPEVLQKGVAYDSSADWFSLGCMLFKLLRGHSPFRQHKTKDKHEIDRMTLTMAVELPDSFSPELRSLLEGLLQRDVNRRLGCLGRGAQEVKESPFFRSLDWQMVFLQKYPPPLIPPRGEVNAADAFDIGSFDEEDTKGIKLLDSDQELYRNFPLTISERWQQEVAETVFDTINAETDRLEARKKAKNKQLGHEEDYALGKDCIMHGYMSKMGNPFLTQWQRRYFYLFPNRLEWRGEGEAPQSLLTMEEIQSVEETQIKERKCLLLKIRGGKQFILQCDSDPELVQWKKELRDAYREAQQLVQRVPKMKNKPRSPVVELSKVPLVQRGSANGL", "assay": "luciferase-based (Kinase-Glo) biochemical kinase inhibition assay, hGRK-2", "settings": "for Ki: luciferase assay, casein substrate, 10 μM ATP, read-out: GRK-2 inhibition, Ki class", "outline": "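Final conditions: 50 nM hGRK2, 20 μM casein, 10 μM ATP and 50 μM test compound in 4.5% DMSO, in HEPES pH 7.5 buffer with MgCl2, orthovanadate, CHAPS, BSA and DTT. Incubation ran 90-120 min at room temperature, targeting 20-30% ATP consumption. Remaining ATP was read by luminescence with diluted Kinase-Glo containing 0.01% trypan blue.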"}, "[2]": {"target": "Beta 2 Adrenergic Receptor (B2 wt)", "assay": "Transfluor assay, isoproterenol-induced arrestin-GFP translocation to Beta 2 Adrenergic Receptor", "format": "cell-based", "settings": "U2OS cells"}, "GRK-6": {"target": "GRK-6 (Homo sapiens, UniProt P43250)", "sequence (P43250 whole entry, species assumed)": "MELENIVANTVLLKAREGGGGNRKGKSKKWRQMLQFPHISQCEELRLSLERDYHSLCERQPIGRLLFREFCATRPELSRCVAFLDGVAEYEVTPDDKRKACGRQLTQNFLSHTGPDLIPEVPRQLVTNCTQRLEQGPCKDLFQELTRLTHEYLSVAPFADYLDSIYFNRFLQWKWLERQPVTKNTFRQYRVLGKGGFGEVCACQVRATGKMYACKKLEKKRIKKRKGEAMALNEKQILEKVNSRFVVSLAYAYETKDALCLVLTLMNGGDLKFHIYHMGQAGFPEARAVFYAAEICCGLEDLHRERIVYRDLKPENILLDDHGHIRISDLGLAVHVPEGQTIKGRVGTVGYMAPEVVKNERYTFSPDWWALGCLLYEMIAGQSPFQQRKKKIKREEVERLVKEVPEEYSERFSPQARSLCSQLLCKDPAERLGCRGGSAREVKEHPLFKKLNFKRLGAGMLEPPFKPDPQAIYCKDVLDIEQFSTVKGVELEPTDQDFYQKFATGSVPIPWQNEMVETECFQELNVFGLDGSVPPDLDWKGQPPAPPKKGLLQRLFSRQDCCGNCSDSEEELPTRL", "assay": "luciferase-based biochemical kinase inhibition assay, GRK-6", "settings": "same luciferase assay; read-out: GRK-6 inhibition, Ki class", "description": "(§1) The inhibition of G-protein-coupled receptor kinases including hGRK-2 was determined for the hydrazide compounds using a biochemical assay. The inhibition of GRK-3, GRK-5 and GRK-6 was also determined using the same assay for some of the hydrazide derivatives.\n(§2) The protein kinase inhibition was determined using a biochemical assay utilizing the light emission of a luciferase reaction. The luciferase-based assay operates on the following reaction principles: [drawing 10]\n(§3) An inhibitor of GRK-2 will increase in the amount of ATP in solution, as shown. Thus, an inhibitor of GRK-2 will drive the luciferase reaction to the right, resulting in more light emitted. The amount of light emitted is proportional to the inhibition resulting from the GRK-2 inhibitor. The luciferase-based assay was also used to test some of the hydrazides for the inhibition properties towards other kinases."}, "GRK-3": {"target": "T2, GRK-3 (Homo sapiens, UniProt P35626)", "T2 sequence (P35626 1-688)": "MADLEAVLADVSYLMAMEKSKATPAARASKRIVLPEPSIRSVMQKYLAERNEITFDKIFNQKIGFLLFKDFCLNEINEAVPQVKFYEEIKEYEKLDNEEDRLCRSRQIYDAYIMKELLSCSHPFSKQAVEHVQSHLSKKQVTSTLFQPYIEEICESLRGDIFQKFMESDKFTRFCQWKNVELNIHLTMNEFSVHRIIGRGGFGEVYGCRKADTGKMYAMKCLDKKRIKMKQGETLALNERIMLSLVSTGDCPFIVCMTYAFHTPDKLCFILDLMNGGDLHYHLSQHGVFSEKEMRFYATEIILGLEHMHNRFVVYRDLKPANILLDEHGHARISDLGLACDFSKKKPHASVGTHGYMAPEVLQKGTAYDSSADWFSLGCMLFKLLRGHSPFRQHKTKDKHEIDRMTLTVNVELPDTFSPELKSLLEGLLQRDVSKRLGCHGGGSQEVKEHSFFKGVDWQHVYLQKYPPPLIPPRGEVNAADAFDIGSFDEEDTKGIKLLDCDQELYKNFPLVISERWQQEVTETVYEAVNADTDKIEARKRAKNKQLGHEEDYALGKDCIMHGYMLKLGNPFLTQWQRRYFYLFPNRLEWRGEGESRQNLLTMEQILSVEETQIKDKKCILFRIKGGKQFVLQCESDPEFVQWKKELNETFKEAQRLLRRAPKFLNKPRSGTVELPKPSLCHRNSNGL", "assay": "luciferase-based biochemical kinase inhibition assay, GRK-3", "settings": "same luciferase assay; read-out: GRK-3 inhibition, Ki class", "description": "as §1, §2, §3"}, "[3]": {"test_system": "Beta 2 Adrenergic receptor", "assay": "cAMP accumulation in HEK-293 cells with isoproterenol", "format": "cell-based", "settings": "Beta 2 Adrenergic receptor overexpressed, fixed concentration of isoproterenol, increased concentrations of compound", "excerpt": "This is consistent with the inhibition of GRK-2 resulting in less translocation of arrestin-GFP, less desensitization, and consequently more signaling by the B2AR. With more receptors available now on the surface of the cell, more cAMP is being generated in the presence of isoproterenol."}, "mu-opioid receptor": {"test_system": "mu-opioid receptor", "settings": "U2OS cells"}, "[4]": {"assay": "Topical ocular composition of Example 103 administered to the eyes", "format": "in vivo", "settings": "0.50 wt % topical composition", "description": "Examples of such assays are described in the following reference, incorporated herein: C. Liljebris, G. Selen, B. Resul, J. Sternschantz, and U. Hacksell, “Derivatives of 17-Phenyl-18,19,20-trinorprostaglandin F2α Isopropyl Ester: Potential Antiglaucoma Agents”, Journal of Medicinal Chemistry, Vol. 38 (2) 1995, pp. 289-304.\nTopical pharmaceutical compositions for lowering intraocular pressure are prepared by conventional methods and formulated as follows: […]\nA compound according to this invention is used as the hydrazide derivative. […]"}}, "note": "Entries after “also recorded” stand apart in the source; their conditions may differ.", "data": [{"compound": "3-{[1-Pyridin-4-yl-meth-(E)-ylidene-hydrazinocarbonylmethyl]-amino}-benzamide [Example 41]", "values": [{"measurement": "IC50", "setting": "[1]; 60 minute pre-incubation, ISO-induced β-arrestin translocation, read-out: IC50 of the β1 arrestin (FIG. 2)", "result": "> 10000", "unit": "nM"}, {"measurement": "inhibition of arrestin-GFP translocation to the B1 WT", "setting": "[1]", "result": "modest inhibition"}, {"measurement": "inhibition of GRK-2, in words", "setting": "hGRK-2", "result": "very good inhibitor of GRK-2"}, {"measurement": "Ki", "setting": "hGRK-2", "result": "10 to 100", "unit": "nM"}, {"measurement": "IC50", "setting": "[2]; 60 minute pre-incubation, ISO-induced β-arrestin translocation, read-out: IC50 of the β2 arrestin (FIG. 1)", "result": 4000, "unit": "nM"}, {"measurement": "inhibition of arrestin-GFP translocation to the B2 WT (F-grains)", "setting": "[2]; isoproterenol", "result": "stepwise reduction in translocation; also recorded: modest inhibition"}, {"measurement": "Ki", "setting": "GRK-6", "result": "> 10000", "unit": "nM"}, {"measurement": "Ki", "setting": "GRK-3", "result": "10 to 100", "unit": "nM"}, {"measurement": "accumulation of cAMP", "setting": "[3]", "result": "increased accumulation of cAMP"}, {"measurement": "inhibition of arrestin-GFP translocation to the μ opioid", "setting": "mu-opioid receptor", "result": "strong inhibition"}, {"measurement": "IC50", "setting": "mu-opioid receptor; read-out: IC50 for the μ-opioid receptor (FIG. 3), 60 minute pre-incubation, morphine-induced β-arrestin translocation", "result": "~150", "unit": "nM"}]}, {"compound": "NC(=O)c1ccc(NCC(=O)N/N=C/c2c(Cl)cncc2Cl)cc1", "note": "[Example 28, 4-{[1-(3,5-Dichloro-pyridin-4-yl)-meth-(E)-ylidene-hydrazinocarbonylmethyl]-amino}-benzamide]", "values": [{"measurement": "Ki", "setting": "hGRK-2", "result": "> 10000", "unit": "nM"}, {"measurement": "intraocular pressure", "setting": "[4]; drop twice per day", "result": "substantially decreases intraocular pressure"}]}, {"compound": "NC(=O)c1cccc(NCC(=O)N/N=C/c2ccncc2)c1", "note": "[Example 51, 3-{[1-Pyridin-4-yl-meth-(E)-ylidene-hydrazinocarbonylmethyl]-amino}-benzamide]", "values": [{"measurement": "Ki", "setting": "hGRK-2", "result": "100 to 1000", "unit": "nM"}, {"measurement": "hyperemia, redness and ocular irritation", "setting": "[4]; drop as needed", "result": "substantially decreases hyperemia, redness and ocular irritation"}, {"measurement": "Ki", "setting": "GRK-3", "result": "100 to 1000", "unit": "nM"}]}, {"compound": "O=C(CNc1cccc(C(=O)NCCN2CCOCC2)c1)N/N=C/c1ccncc1", "note": "[Example 79, N-(2-Morpholin-4-yl-ethyl)-3-{[1-pyridin-4-yl-meth-(E)-ylidene-hydrazinocarbonylmethyl]-amino}-benzamide]", "values": [{"measurement": "Ki", "setting": "hGRK-2", "result": "100 to 1000", "unit": "nM"}, {"measurement": "intraocular pressure", "setting": "[4]; drop 4 times per day", "result": "substantially decreases intraocular pressure"}, {"measurement": "neuroprotective agent", "setting": "[4]; drop 4 times per day", "result": "serves as a neuroprotective agent"}]}, {"compound": "Cc1ccc(Oc2cccc(NCC(=O)N/N=C/c3ccncc3)c2)cc1", "note": "[Example 85, (3-p-Tolyloxy-phenylamino)-acetic acid [1-pyridin-4-yl-meth-(E)-ylidene]-hydrazide]", "values": [{"measurement": "Ki", "setting": "hGRK-2", "result": "10 to 100", "unit": "nM"}, {"measurement": "allergic symptoms", "setting": "[4]; drop twice per day", "result": "substantially decreases allergic symptoms"}, {"measurement": "dry eye syndrome", "setting": "[4]; drop twice per day", "result": "relieves dry eye syndrome"}]}]}
